Drawing on patent US8263606B2 (Xenon Pharmaceuticals Inc., priority 2008, dated 2012), this text covers melting point, IC50 and inhibition for 25 compounds.

In one data set the test system is sodium channel. The experiment in a line: Guanidine influx assay (14C-guanidine radiotracer flux, in vitro). Format: cell-based, human or rat. Particulars: guanidine influx assay using a known cell line that expresses a sodium channel. In a few lines: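 Cells stably expressing human or rat sodium channels (~100,000/well, 20–24 h) were exposed in low-sodium choline buffer to test agent plus aconitine activator and 14C-guanidine at ambient temperature. Intracellular 14C-guanidine was counted by scintillation; IC50 fitted by 4-parameter logistic over half-dilutions around 1 μM.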

In a further data set the target is CYP3A4 (Homo sapiens, UniProt P08684). The experiment in a line: Cytochrome P450 (CYP450) Inhibition Assay, CYP3A4 (Vivid fluorescence, BOMCC substrate). Particulars: human, P450 Baculosomes (recombinant CYP3A4), probe BOMCC (Vivid substrate).
Sequence of CYP3A4 (P08684 whole entry): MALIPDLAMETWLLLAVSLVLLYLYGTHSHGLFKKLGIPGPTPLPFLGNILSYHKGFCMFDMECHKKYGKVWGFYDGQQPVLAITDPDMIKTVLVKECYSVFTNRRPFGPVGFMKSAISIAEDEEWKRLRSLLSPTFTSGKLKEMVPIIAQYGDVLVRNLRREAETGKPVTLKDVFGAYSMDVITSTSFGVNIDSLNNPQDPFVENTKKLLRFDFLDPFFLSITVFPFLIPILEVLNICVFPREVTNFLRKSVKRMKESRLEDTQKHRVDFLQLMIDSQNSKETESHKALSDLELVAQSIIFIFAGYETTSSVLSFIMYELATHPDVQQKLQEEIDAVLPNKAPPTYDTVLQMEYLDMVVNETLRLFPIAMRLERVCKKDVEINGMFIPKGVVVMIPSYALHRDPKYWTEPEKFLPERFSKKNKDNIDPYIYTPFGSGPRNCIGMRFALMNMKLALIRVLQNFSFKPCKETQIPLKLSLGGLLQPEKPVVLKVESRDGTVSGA

The compound `O=C1N(C[C@H]2CCCO2)c2ccccc2C12COc1cc(O)ccc12` (stereo partly drawn) [Example 11.53, 6-hydroxy-1′-[(2R)-tetrahydrofuran-2-ylmethyl]spiro[1-benzofuran-3,3′-indol]-2′(1′H)-one] displayed a melting point of 72 to 74 °C. Also, the IC50 with sodium channel lay within 0.1 to 1 µM. Further, the inhibition at 10 µM on CYP3A4 is less than 50%.

`Cl.O=C1N(C[C@H]2CCCO2)c2ccccc2C12COc1cc(O[C@H]3CCNC3)ccc12` (stereo partly drawn) [Example 11.56, 6-[(3S)-pyrrolidin-3-yloxy]-1′-[(2R)-tetrahydrofuran-2-ylmethyl]spiro[1-benzofuran-3,3′-indol]-2′(1′H)-one hydrochloride] gave a melting point of 119 to 121 °C. Besides, the IC50 in the data set on sodium channel lay within 1 to 10 µM. For the same compound, the inhibition at 10 µM at CYP3A4 was less than 50%.

For `Cl.O=C1N(C[C@H]2CCCO2)c2ccccc2C12COc1cc(O[C@@H]3CCNC3)ccc12` (stereo partly drawn) [Example 11.58, 6-[(3R)-pyrrolidin-3-yloxy]-1′-[(2R)-tetrahydrofuran-2-ylmethyl]spiro[1-benzofuran-3,3′-indol]-2′(1′H)-one hydrochloride], the melting point lay within 120 to 130 °C. Besides, the IC50 in the data set with sodium channel was 1 to 10 µM. In addition, the inhibition at 10 µM at CYP3A4 was less than 50%.

The compound `O=C1COc2cc3c(cc21)C1(CO3)C(=O)N(C[C@H]2CCCO2)c2ccccc21` (stereo partly drawn) [Example 11.60, 1′-[(2R)-tetrahydrofuran-2-ylmethyl]spiro[benzo[1,2-b:5,4-b′]difuran-3,3′-indole]-2′,5(1′H,6H)-dione] gave a melting point of 142 to 144 °C. Also, in the data set on sodium channel, the IC50 lay within 0.1 to 1 µM. Also, the inhibition at 10 µM on CYP3A4 was less than 50%.

Turning to `CN1C(=O)CC[C@H]1CN1C(=O)C2(COc3cc4c(cc32)CCO4)c2ccccc21` (stereo partly drawn) [Example 11.70, 1′-{[(2S)-1-methyl-5-oxopyrrolidin-2-yl]methyl}-5,6-dihydrospiro[benzo[1,2-b:5,4-b′]difuran-3,3′-indol]-2′(1′H)-one], the melting point was 72 to 76 °C. Further, the IC50 with sodium channel fell in the range of 1 to 10 µM. The inhibition at 10 µM at CYP3A4 was greater than 50%.

Turning to `O=C1N(Cc2noc(C(F)(F)F)n2)c2ccccc2C12COc1cc3c(cc12)OCO3` (stereo not drawn) [Example 11.72, 1-{[5-(trifluoromethyl)-1,2,4-oxadiazol-3-yl]methyl}spiro[furo[2,3-f][1,3]benzodioxole-7,3′-indol]-2′(1′H)-one], the melting point was 139 to 140 °C. For the same compound, the 50% inhibitory concentration (IC50) in the data set with sodium channel lay within 0.001 to 0.1 µM. For the same compound, the inhibition at 10 µM on CYP3A4 was greater than 50%.

In turn, `CC(C)NC(=O)N1CCCC(CCN2C(=O)C3(COc4cc5c(cc43)OCO5)c3ccccc32)C1` (stereo not drawn) [Example 11.73, N-isopropyl-3-[2-(2′-oxospiro[furo[2,3-f][1,3]benzodioxole-7,3′-indol]-1′(2′H)-yl)ethyl]piperidine-1-carboxamide] came in with a melting point of 206 to 208 °C. In the data set with sodium channel, the IC50 was in the range of 0.1 to 1 µM. Also, on CYP3A4, the inhibition at 10 µM was greater than 50%.

`N#Cc1csc(CN2C(=O)C3(COc4cc5c(cc43)OCO5)c3ccccc32)c1` (stereo not drawn) [Example 11.74, 5-[(2′-oxospiro[furo[2,3-][1,3′]benzodioxole-7,3′-indol]-1′(2′H)-yl)methyl]thiophene-3-carbonitrile] registered a melting point of 207 to 209 °C. Also, the IC50 in the data set on sodium channel was 0.001 to 0.1 µM. Moreover, the inhibition at 10 µM on CYP3A4 was greater than 50%.

`N#Cc1cccc2c1NC(=O)C21COc2cc3c(cc21)OCO3` (stereo not drawn) [Example 11.75, 2′-oxo-1′,2′-dihydrospiro[furo[2,3-f][1,3]benzodioxole-7,3′-indole]-7′-carbonitrile]: the melting point was in the range of 205 to 207 °C. The half-inhibitory concentration (IC50) in the data set with sodium channel lay within 0.1 to 1 µM. The inhibition at 10 µM on CYP3A4 was greater than 50%.

For the compound `O=C1N(Cc2ncccc2Br)c2ccccc2C12COc1cc3c(cc12)OCCO3` (stereo not drawn) [Example 11.78], the melting point lay within 217 to 218 °C. Moreover, the half-maximal inhibitory concentration (IC50) in the data set on sodium channel lay in the range of 0.001 to 0.1 µM. In addition, on CYP3A4, the inhibition at 10 µM is less than 50%.

The compound `CS(=O)(=O)c1cccnc1CN1C(=O)C2(COc3cc4c(cc32)OCCO4)c2ccccc21` (stereo not drawn) [Example 11.79] returned a melting point greater than 250 °C. Besides, the IC50 in the data set on sodium channel was 0.1 to 1 µM. Further, the inhibition at 10 µM at CYP3A4 was less than 50%.

Turning to `N#Cc1cccnc1CN1C(=O)C2(COc3cc4c(cc32)OCCO4)c2ccccc21` (stereo not drawn) [Example 11.80], the melting point fell in the range of 230 to 233 °C. Also, in the data set on sodium channel, the IC50 lay in the range of 0.001 to 0.1 µM. Besides, the inhibition at 10 µM on CYP3A4 is less than 50%.

The compound `O=C1N(Cc2ncccc2C(F)F)c2ccccc2[C@]12COc1cc3c(cc12)OCCO3` [Example 11.81, (8S)-1′-{[3-(difluoromethyl)pyridin-2-yl]methyl}-2,3-dihydrospiro[furo[2,3-g][1,4]benzodioxine-8,3′-indol]-2′(1′H)-one] came in with a melting point of 181 to 182 °C. The concentration for half-maximal inhibition (IC50) in the data set on sodium channel fell in the range of 0.001 to 0.1 µM. On CYP3A4, the inhibition at 10 µM was less than 50%.

`Cc1nc(-c2cccc(CN3C(=O)C4(COc5cc6c(cc54)OCCO6)c4ccccc43)c2)no1` (stereo not drawn) [Example 11.83, 1′-[3-(5-methyl-1,2,4-oxadiazol-3-yl)benzyl]-2,3-dihydrospiro[furo[2,3-g][1,4]benzodioxine-8,3′-indol]-2′(1′H)-one] gave a melting point of 90 to 95 °C. Further, in the data set on sodium channel, the IC50 was 0.001 to 0.1 µM. Further, the inhibition at 10 µM on CYP3A4 is greater than 50%.

Consider `Cc1nc(-c2ccc(CN3C(=O)C4(COc5cc6c(cc54)OCCO6)c4ccccc43)cc2)no1` (stereo not drawn) [Example 11.84, 1′-[4-(5-methyl-1,2,4-oxadiazol-3-yl)benzyl]-2,3-dihydrospiro[furo[2,3-g][1,4]benzodioxine-8,3′-indol]-2′(1′H)-one], for which the melting point was in the range of 174 to 175 °C. For the same compound, the IC50 in the data set with sodium channel fell in the range of 0.001 to 0.1 µM. Besides, the inhibition at 10 µM at CYP3A4 was less than 50%.

Compound `O=C(O)c1cccc(CN2C(=O)C3(COc4cc5c(cc43)OCCO5)c3ccccc32)c1` (stereo not drawn) [Example 11.86, 3-[(2′-oxo-2,3-dihydrospiro[furo[2,3-g][1,4]benzodioxine-8,3′-indol]-1′(2′H)-yl)methyl]benzoic acid] came in with a melting point of 254 to 258 °C. The IC50 in the data set with sodium channel lay in the range of 1 to 10 µM. Further, at CYP3A4, the inhibition at 10 µM is less than 50%.

For `O=C(O)c1ccc(CN2C(=O)C3(COc4cc5c(cc43)OCCO5)c3ccccc32)cc1` (stereo not drawn) [Example 11.87, 4-[(2′-oxo-2,3-dihydrospiro[furo[2,3-g][1,4]benzodioxine-8,3′-indol]-1′(2′H)-yl)methyl]benzoic acid], the melting point was in the range of 234 to 237 °C. Besides, in the data set with sodium channel, the IC50 is 1 to 10 µM. Besides, at CYP3A4, the inhibition at 10 µM is less than 50%.

Compound `O=C1N(Cc2noc(C(F)(F)F)n2)c2ccccc2C12COc1cc3c(cc12)OCCO3` (stereo not drawn) [Example 11.90, 1′-{[5-(trifluoromethyl)-1,2,4-oxadiazol-3-yl]methyl}-2,3-dihydrospiro[furo[2,3-g][1,4]benzodioxine-8,3′-indol]-2′(1′H)-one] came in with a melting point of 159 to 160 °C. Moreover, in the data set with sodium channel, the IC50 fell in the range of 0.001 to 0.1 µM. In addition, the inhibition at 10 µM at CYP3A4 was greater than 50%.

Take `O=C1N(Cc2nnc(C(F)(F)F)o2)c2ccccc2C12COc1cc3c(cc12)OCCO3` (stereo not drawn) [Example 11.92, 1′-{[5-(trifluoromethyl)-1,3,4-oxadiazol-2-yl]methyl}-2,3-dihydrospiro[furo[2,3-g][1,4]benzodioxine-8,3′-indol]-2′(1′H)-one]: the melting point lay in the range of 137 to 139 °C. For the same compound, the IC50 with sodium channel was in the range of 0.001 to 0.1 µM. Moreover, on CYP3A4, the inhibition at 10 µM is less than 50%.

`CC(C)N1CCC(CN2C(=O)C3(COc4cc5c(cc43)OCCO5)c3ccccc32)CC1.Cl` (stereo not drawn) [Example 11.100, 1′-{[1-(1-methylethyl)piperidin-4-yl]methyl}-2,3-dihydrospiro[furo[2,3-g][1,4]benzodioxine-8,3′-indol]-2′(1′H)-one hydrochloride] had a melting point of 213 to 216 °C. For the same compound, the IC50 with sodium channel fell in the range of 1 to 10 µM. In addition, the inhibition at 10 µM at CYP3A4 is greater than 50%.

`O=C1N(CC2CNCCO2)c2ccccc2C12COc1cc3c(cc12)OCCO3` (stereo not drawn) [Example 11.102, 1-(morpholin-2-ylmethyl)-2,3-dihydrospiro[furo[2,3-g][1,4]benzodioxine-8,3′-indol]-2′(1′1-1)-one] came in with a melting point of 154 to 159 °C. Besides, in the data set on sodium channel, the IC50 lay in the range of 1 to 10 µM. In addition, the inhibition at 10 µM on CYP3A4 was less than 50%.

Regarding `CC(C)N1CCOC(CN2C(=O)C3(COc4cc5c(cc43)OCCO5)c3ccccc32)C1` (stereo not drawn) [Example 11.103, 1′-{[4-(1-methylethyl)morpholin-2-yl]methyl}-2,3-dihydrospiro[furo[2,3-g][1,4]benzodioxine-8,3′-indol]-2′(1′H)-one], the melting point was 102 to 125 °C. In addition, in the data set with sodium channel, the IC50 lay in the range of 0.1 to 1 µM. The inhibition at 10 µM at CYP3A4 was greater than 50%.

`CN1CCOC(CN2C(=O)C3(COc4cc5c(cc43)OCCO5)c3ccccc32)C1` (stereo not drawn) [Example 11.104, 1-[(4-methylmorpholin-2-yl)methyl]-2,3-dihydrospiro[furo[2,3-g][1,4]benzodioxine-8,3′-indol]-2′(1′H)-one] gave a melting point of 102 to 112 °C. Also, the IC50 in the data set on sodium channel lay within 0.1 to 1 µM. Further, the inhibition at 10 µM on CYP3A4 was greater than 50%.

`CN1CCO[C@H](CN2C(=O)[C@@]3(COc4cc5c(cc43)OCCO5)c3ccccc32)C1` [Example 11.106, (8S)-1′-{[(2S)-4-methylmorpholin-2-yl]methyl}-2,3-dihydrospiro[furo[2,3-g][1,4]benzodioxine-8,3′-indol]-2′(1′H)-one] had a melting point of 85 to 90 °C. In the data set with sodium channel, the IC50 is 0.001 to 0.1 µM. Moreover, the inhibition at 10 µM at CYP3A4 was less than 50%.

Compound `O=C1N(Cc2ncccc2C(F)(F)F)c2ccccc2C12COc1ccc3nonc3c12` (stereo not drawn) [Example 11.107, 1′-{[3-(trifluoromethyl)pyridin-2-yl]methyl}spiro[furo[3,2-e][2,1,3]benzoxadiazole-8,3′-indol]-2′(1′H)-one] returned a melting point of 212 to 215 °C. The IC50 with sodium channel was in the range of 1 to 10 µM. Moreover, the inhibition at 10 µM on CYP3A4 was greater than 50%.
